pEC50: −log10 of the molar value. “Also recorded” adds a separate entry of the source. Like-named read-outs stand apart in the source and are kept apart here.
What was measured:
[1] = biological target: T1, human serotonin 5-HT2c receptor (Homo sapiens, UniProt P28335); assay: Human 5-HT2C receptor radioligand binding assay (agonist site, [125I](±)DOI); details: membranes of transfected CHO cells, 0.2 nM [125I](±)DOI, 15 minutes at 37° C.
T1 construct: expressed in transfected cells; host or cells: CHO cells (membrane homogenate)
T1 sequence (P28335 33-458): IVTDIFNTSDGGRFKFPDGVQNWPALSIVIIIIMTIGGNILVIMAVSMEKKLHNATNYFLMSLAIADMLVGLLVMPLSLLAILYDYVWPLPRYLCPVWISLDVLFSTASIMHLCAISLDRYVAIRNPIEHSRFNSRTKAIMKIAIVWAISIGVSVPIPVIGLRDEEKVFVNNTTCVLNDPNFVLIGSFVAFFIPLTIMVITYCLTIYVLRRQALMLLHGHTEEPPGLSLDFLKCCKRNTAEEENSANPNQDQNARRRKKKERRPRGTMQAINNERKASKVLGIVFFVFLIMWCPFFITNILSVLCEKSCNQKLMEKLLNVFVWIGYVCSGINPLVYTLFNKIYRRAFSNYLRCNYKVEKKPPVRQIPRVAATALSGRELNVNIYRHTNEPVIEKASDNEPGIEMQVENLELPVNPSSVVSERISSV
How it was run: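 Affinity for the agonist site measured by radioligand binding in transfected CHO cells expressing the human receptor, using [125I](±)DOI.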

[2] = biological target: T2, 5HT2C receptors (Homo sapiens, UniProt P28335); assay: Human 5-HT2C functional assay in 1321N1 cells (intracellular calcium, FLIPR); format: cell-based; set-up: expressed in transfected cells; host or cells: 1321N1 cells
T2 sequence (P28335 33-458): T1 sequence (P28335 33-458)
How it was run: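 Intracellular calcium in 1321N1 cells stably transfected with human 5-HT2C, serum-starved overnight, Fluo4 AM-loaded with 1% probenecid. Compounds at 10^−10 to 10^−5 M final, alone or with 10^−9 M serotonin; peak FLIPR response. EC50 from four-parameter logistic fit; Emax as % of serotonin effect.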

[3] = test system: PCP-induced hyperactivity; assay: Phencyclidine (PCP)-induced hyperlocomotion in mice; format: in vivo; details: test compound ip 30 minutes before phencyclidine 2.0 mg/kg sc, FIG. 4
Method: (§1) (v) Assessment of Effects on Psychostimulant-Induced Hyperlocomotion in Mice
In humans, phencyclidine (PCP) is known to produce a syndrome of behavioral effects which have many characteristics in common with schizophrenia. Therefore, antagonism of PCP effects might be evidence for antipsychotic efficacy of a compound.
(§2) Male NMRI mice (5-week old, Janvier, France) or C57BL/6J mice (6-week old, Janvier, France) were group housed and allowed ad-libitum access to food and water. A 12 hour light/dark cycle was imposed with lights-on period between 0530 and 1730 hours. All testing occurred between 700 and 1300 hours. All procedures were approved by Abbott Institutional Animal Care and Use Committee (USA) or Animal Welfare Officer (Germany) and were conducted in accordance with the National Institutes of Health Guide for Care and Use of Laboratory Animals guidelines and applicable national laws in the facilities accredited by the Association for the Assessment and Accreditation of Laboratory Animal Care.
On the day of experiment, animals were brought from the animal facility into the experimental room and were allowed to acclimatize for at least 30 minutes. Animals were then placed in the test cages for a habituation period of 60 minutes. […] The analyzed data were: fine movements, ambulations and total movements (fine+ambulations). […]

[4] = biological target: T3, 5HT2B receptors (Homo sapiens, UniProt P41595); assay: Human 5-HT2B functional assay in CHO-K1 cells (calcium flux, FLIPR); format: cell-based
T3 construct: expressed in transfected cells; host or cells: CHO-K1 cells
T3 sequence (P41595 whole entry): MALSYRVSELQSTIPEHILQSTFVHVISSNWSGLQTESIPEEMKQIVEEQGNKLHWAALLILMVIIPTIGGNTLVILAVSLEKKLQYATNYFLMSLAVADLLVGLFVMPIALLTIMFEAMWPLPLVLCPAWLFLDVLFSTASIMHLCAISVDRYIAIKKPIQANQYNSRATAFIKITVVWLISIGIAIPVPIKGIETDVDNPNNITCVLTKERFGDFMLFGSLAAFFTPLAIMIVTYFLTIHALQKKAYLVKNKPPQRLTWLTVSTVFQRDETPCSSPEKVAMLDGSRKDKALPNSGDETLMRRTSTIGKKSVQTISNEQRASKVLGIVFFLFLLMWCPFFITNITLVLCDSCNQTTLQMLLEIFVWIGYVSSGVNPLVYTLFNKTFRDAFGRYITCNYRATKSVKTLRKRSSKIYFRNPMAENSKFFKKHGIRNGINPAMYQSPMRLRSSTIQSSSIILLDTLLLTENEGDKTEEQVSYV
How it was run: (§3)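 EC50 came from a 4-parameter logistic fit, with Emax expressed relative to serotonin, of intracellular Ca2+ rises read on FLIPR at 480/530 nm, 25° C, over 3 min. Compounds ran from 10 μM in six 1:10 steps (0.2% DMSO) on serum-starved CHO-K1 transfectants pre-loaded 60 min with Ca4 dye and probenecid.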

[5] = test system: AMP-induced hyperactivity; assay: d-Amphetamine-induced hyperlocomotion in mice; format: in vivo
Excerpt: as §1
In both humans and experimental animals amphetamine profoundly affects motor activity, sensorimotor function, sleep, attention, aggressive and sexual behaviors, learning and memory, operant behaviors, appetite and food intake. In addition, amphetamine induces psychotic reactions in normal individuals and exacerbates symptoms of schizophrenia in patients. In experimental animals several distinct behaviors are considered to be correlates of amphetamine psychosis. For example, amphetamine-induced hyperactivity in rodents is believed to model the psychotic symptoms of schizophrenia. Reversal of these behaviors is used to predict potential antipsychotic activity of drugs in pre-clinical studies.
as §2
On the day of experiment, animals were brought from the animal facility into the experimental room and were allowed to acclimatize for at least 30 minutes. Animals were then placed in the test cages for a habituation period of 60 minutes. The animals were then injected ip with the test compound and returned to the test cage. 30 Minutes later, the mice were injected with d-amphetamine (2.0 mg/kg, AMP, Sigma, #A5880, sc) or phencyclidine (2.0 mg/kg, PCP, Sigma, #P3029, sc), and returned to the test cages for 90 minutes. […] The analyzed data were: fine movements, ambulations and total movements (fine+ambulations). […]

[6] = test system: spontaneous activity; assay: Spontaneous activity in mice; format: in vivo; details: vehicle or a dose of test compound, FIG. 2b, FIG. 3b
[7] = biological target: T2, 5HT2C receptors; assay: Human 5-HT2C functional assay in CHO-K1 cells (calcium flux, FLIPR); format: cell-based; set-up: expressed in transfected cells; host or cells: CHO-K1 cells; details: for Emax: percentage relative to the effect of serotonin
How it was run: as §3

O=C1C[C@H]2CNCCN2c2ccccc2N1 [Example 2, (4aS)-1,2,3,4,4a,5-hexahydropyrazino[1,2-a][1,5]benzodiazepin-6(7H)-one] gave a Ki [1] of 0.016 µM, an EC50 ([2]; 1321N1 cells stably transfected, maximum calcium response, read-out: EC50 (μM), 5-HT2c Agonist Activity) of 0.0192 µM and an Emax ([2]; 1321N1 cells, percentage relative to the effect of serotonin, read-out: Emax (%), 5-HT2c Agonist Activity) of 90%. For the same molecule, the PCP-induced hyperactivity [3] was “attenuated PCP-induced hyperactivity significantly and in a dose dependent manner; also recorded: concentration-dependent effects of Example 2 attenuating the affect of phencyclidine (PCP)”.

c1ccc2c(c1)OCC[C@H]1CNCCN21 [Example 169, (4aS)-2,3,4,4a,5,6-hexahydro-1H-pyrazino[2,1-d][1,5]benzoxazepine] was tested, and the pEC50 [4] was < 5.00, the AMP-induced hyperactivity ([5]; 10 and 30 mg/kg ip before d-amphetamine 2.0 mg/kg sc, FIG. 3a) was “attenuated AMP-induced hyperactivity significantly and in a dose dependent manner; also recorded: concentration-dependent effects of Example 169 attenuating the affect of d-amphetamine” and the “spontaneous activity (total activity counts)” value [6] was “no effects; also recorded: No change in spontaneous activity regardless of dose”. For the same molecule, the pEC50 [7] was 9.00 and the Emax ([7]; CHO-K1, read-out: Emax (%), 5-HT2c Agonist Activity, CHO-K1 cells) was > 120%.

With CCOc1ccc2c(c1)N1CCNC[C@@H]1CC(=O)N2 [Example 181, (4aS)-10-ethoxy-1,2,3,4,4a,5-hexahydropyrazino[1,2-a][1,5]benzodiazepin-6(7H)-one] the EC50 ([4]; CHO-K1 cells over-expressing 5HT2B, calcium flux, read-out: EC50 (μM), 5-HT2B Agonist Activity) was > 10 µM, the AMP-induced hyperactivity ([5]; 1.0 and 3.0 mg/kg ip before d-amphetamine 2.0 mg/kg sc, FIG. 2a) was “attenuated AMP-induced hyperactivity significantly and in a dose dependent manner; also recorded: concentration-dependent effects of Example 181 attenuating the affect of d-amphetamine” and the “spontaneous activity (total activity counts)” value [6] was “no effects; also recorded: No change in spontaneous activity regardless of dose”. The EC50 ([7]; CHO-K1 cells over-expressing 5HT2C, calcium flux, read-out: EC50 (μM), 5-HT2c Agonist Activity) was 0.02 µM and the Emax ([7]; CHO-K1 cells, read-out: Emax (%), 5-HT2c Agonist Activity) was > 120%.

— patent US8546377B2 (AbbVie Inc., priority 2009, dated 2013)
